Assay results as given in publication PMC7808747, “Design, synthesis, and in vitro evaluation of BP-1-102 analogs with modified hydrophobic fragments for STAT3 inhibition” (Journal of Enzyme Inhibition and Medicinal Chemistry, 2021).

What was measured:
[1] = tested on: mouse lung TC-1 cancer cell line; experiment: MTT cytotoxicity assay, TC-1; assay type: cell-based; details: for cytotoxic effect in TC-1 (in words): 0–50 µM, 24 h
Description: (§1) Cells were seeded at the density of 2000 cells per well (96-well F microplates; Nunc, Roskilde, Denmark). The following day, the tested compounds were added. In the next 24 h, MTT (3-(4,5-dimethylthiazol-2-yl)-2,5-diphenyltetrazolium bromide) was added. After 6 h, DMF (dimethylformamide) was added, and after additional 24 h, absorbance was measured at 560 nm by a microplate reader.

[2] = tested on: human breast cancer MDA-MB-231 cell line; experiment: Resazurin cytotoxicity assay, MDA-MB-231; assay type: cell-based; details: resazurin assay; for cytotoxic effect in MDA-MB-231 (in words): 0, 5, 10, 20, 50 µM
Description: (§2) The cells were treated with the compounds at concentrations 0, 5, 10, 20, and 50 µM for 24 h, and the cytotoxicity was estimated by the resazurin assay.
To estimate IC50 of 6 and 14, MDA-MB-231 cells were treated with 1 (0, 2, 5, 10, 15, 20, 25, 30, 40, and 50 µM), 6 (0, 5, 10, 20, 25, 30, 40, 50, 70, and 100 µM), and 14 (0, 20, 40, 50, 60, 70, 80, 100, 150, and 200 µM) for 24 h.
(§3) The resazurin reduction assay[34] was performed as described previously. Briefly, cells were seeded onto a 96-well plate (2000 cells per well) in hexaplicate and the following day treated with the tested compounds (dissolved in DMSO as 50 mM stock) in a concentration range as indicated. After 24 h, 200 μl of culture medium of each well was exchanged for 100 μl of resazurin (stock 30 mg/ml; Sigma, St. Louis, MO) diluted 10 times in the culture medium, and the cells were incubated at 37 °C for 1–3 h. Reading of fluorescence was done using an Envision reader (PerkinElmer, Waltham, MA). Absolute values of fluorescence were related to the values of control/untreated cells. To estimate the cytotoxic concentration (half maximal inhibitory concentration, IC50), log-scale data were processed in GraphPad Prism software (La Jolla, CA) using nonlinear fit curve.

TRAMP-C2 cells = experiment: Annexin V / propidium iodide FACS, TRAMP-C2; assay type: cell-based, mouse; details: TRAMP-C2, 24 h
Description: (§6) Cells were harvested by centrifugation, resuspended in cold PBS and again centrifuged. Cell pellets were then resuspended in Annexin V Binding Buffer (ApoFlowEx FITC Kit, ED7044, Exbio, Vestec, Czech Republic), annexin V-APC and PI were added to the cell pellet and mixed. Cells were incubated in the dark at room temperature for 15 min. After the incubation, cells were centrifuged, resuspended in Annexin V Binding Buffer and analysed by flow cytometry. Five thousand cells per sample were measured by analysing annexin V and PI using a BD FACSVerse™ flow cytometer (BD Biosciences, Franklin Lakes, NJ). Data were analysed using FlowJo 10 software (FlowJo LLC, Ashland, OR), and the percentage of viable (annexin V-negative/PI-negative) cells relative to control was plotted.

[3] = tested on: human breast adenocarcinoma MCF-7; experiment: Resazurin cytotoxicity assay, MCF-7
Description: (§4) Furthermore, the cytotoxicity of compound 6 was compared to BP-1-102 (1) in human glioblastoma cell lines U-87 and T98 in concentration range 0–80 µM for 24 h using the crystal violet assay.
as §3

cervix carcinoma HeLa = experiment: Resazurin cytotoxicity assay, HeLa; details: 0–50 µM, 24 h
Description: as §4, §3

TC-1 cells = experiment: Annexin V / propidium iodide FACS, TC-1; details: TC-1, 24 h
Description: as §6

[4] = tested on: prostate carcinoma DU-145; experiment: Resazurin cytotoxicity assay, DU-145
Description: as §4, §3

MDA-MB-231 cells = experiment: Annexin V / propidium iodide FACS, MDA-MB-231; assay type: cell-based, human; details: MDA-MB-231, 0, 5, 10, 20, 50 µM, 24 h
Description: as §6

[5] = tested on: human immortalised retinal pigment epithelium RPE-1; experiment: Crystal violet assay, RPE-1; details: 0–50 µM, 24 h
Description: as §2
(§5) To determine cell viability by crystal violet assay, cells were seeded in 96-well plates at densities of 3000 (RPE-1), 5000 (U373 and T98-G), and 8000 (U-87 MG) cells per well. The next day the cells were treated with the tested compounds in triplicate in a concentration range as indicated. After 24 h, the cells in each well were washed twice with 150 µl PBS and then stained in 30 µl 0.5% w/v crystal violet in 20% methanol for 15 min. Plates were washed three times with double distilled H2O and left to dry overnight. Crystal violet was solubilised with 75 µl 0.2% Triton X-100 (Sigma, St. Louis, MO) in PBS for 15 min. Absorbance of crystal violet was measured at 595 nm using a microplate reader (Multiskan EX, Thermo Electron Corporation, Waltham, MA). Absorbance of the treated samples was expressed as a percentage of absorbance of untreated cells.

human glioblastoma U373 = experiment: Crystal violet assay, U373; details: 0–50 µM, 24 h
Description: as §2, §5

RPE-1 = experiment: Resazurin assay, RPE-1 (Table 2); assay type: cell-based; details: Homo sapiens, resazurin assay (footnote a), read-out: IC50±SD RPE-1
Description: The resazurin reduction assay[34] was performed as described previously[38]. Briefly, cells were seeded onto a 96-well plate (2000 cells per well) in hexaplicate and the following day treated with the tested compounds (dissolved in DMSO as 50 mM stock) in a concentration range as indicated. After 24 h, 200 μl of culture medium of each well was exchanged for 100 μl of resazurin (stock 30 mg/ml; Sigma, St. Louis, MO) diluted 10 times in the culture medium, and the cells were incubated at 37 °C for 1–3 h. Reading of fluorescence was done using an Envision reader (PerkinElmer, Waltham, MA). Absolute values of fluorescence were related to the values of control/untreated cells. To estimate the cytotoxic concentration (half maximal inhibitory concentration, IC50), log-scale data were processed in GraphPad Prism software (La Jolla, CA) using nonlinear fit curve.

[6] = tested on: mouse prostate TRAMP-C2 cancer cell line; experiment: MTT cytotoxicity assay, TRAMP-C2; assay type: cell-based; details: MTT assay; for cytotoxic effect in TRAMP-C2 (in words): 0–50 µM, 24 h
Description: as §1

osteosarcoma U2-OS = experiment: Resazurin cytotoxicity assay, U2-OS; details: 0–50 µM, 24 h
Description: as §4, §3

[7] = tested on: STAT3 Y705 phosphorylation (pY705); experiment: STAT3 pY705 immunoblotting, MDA-MB-231; assay type: cell-based, human; details: MDA-MB-231, micromolar concentration range, 4 h
Description: The cells were exposed to BP-1-102 (1), compounds 6 and 14 in a micromolar concentration range for 4 h, and then the levels of STAT3 pY705 and total STAT3 were probed by immunoblotting with specific antibodies. […] It can be concluded that both novel compounds 6 and 14 manifested inhibitory effects on receptor-mediated phosphorylation of Y705 of STAT3 in both human and mouse cell lines.
Cells were washed three times with PBS, harvested into 95 °C-heated Laemmli SDS sample lysis buffer (2% SDS, 50 mM Tris–Cl, 10% glycerol in double distilled H2O) and sonicated at 3 μm amplitude for 3 × 10 or 3 × 30 s with 10 or 30 s cooling intervals in a Soniprep 150 (MSE, London, UK) or Diagenode Bioruptor 300 (Diagenode, Liege, Belgium) for human and murine cell lines, respectively. Concentration of proteins was estimated by the Pierce^TM BCA Protein Assay (Thermo Scientific, Waltham, MA). DTT (100 mM) and 0.01% bromophenol blue were added to the lysates before separation by SDS-PAGE (10% gels were used). Equal protein amounts (40 or 35 μg for human or murine cell lines, respectively) were loaded into each well. Proteins were electrotransferred onto a nitrocellulose membrane (Amersham^TM Protran^TM 0.45 µm NC, GE Healthcare, Chalfont St Giles, UK) using wet transfer and detected by specific antibodies (at 4 °C overnight) combined with HRP-conjugated secondary antibodies. Peroxidase activity was detected by Amersham^TM ECL Western Blotting Detection Reagents (GE Healthcare, Chalfont St Giles, UK). GAPDH was used as a loading control.

[8] = tested on: human breast cancer MDA-MB-231; design: method as in PMID 20067773; details: previously published; cited from earlier work
[9] = tested on: pancreatic cancer Panc-1 cell lines; design: method as in PMID 20067773; details: previously published; cited from earlier work

CN(CC(=O)N(Cc1ccc(C(F)(F)F)cc1)c1ccc(C(=O)O)c(O)c1)S(=O)(=O)c1c(F)c(F)c(F)c(F)c1F [Compound 14, 4-(N-(4-Trifluoromethylbenzyl)-2-(2,3,4,5,6-pentafluoro-N-methylphenylsulfonamido)acetamido)-2-hydroxybenzoic acid]
cytotoxic effect in TC-1 (in words) [1]: cytotoxic activity comparable to BP-1-102 (1)
IC50 ([1]; Mus musculus, read-out: IC50±SD TC-1): 25.3 ± 6.6 µM
IC50 ([2]; Homo sapiens, MDA-MB-231, 24 h, 24 h, read-out: IC50±SD MDA-MB-231): 39.3 ± 6.3 µM
concentration from which the compound was cytotoxic ([2]; MDA-MB-231, 24 h): 20 µM
cytotoxicity by annexin V/PI staining and FACS (TRAMP-C2 cells): confirmed
cytotoxic effect in MCF-7 (in words) ([3]; 0–50 µM, 24 h, resazurin assay): comparable to BP-1-102 (1) and compound 6 at 50 µM, it was markedly decreased at lower concentrations
IC50 ([3]; Homo sapiens, MCF7, read-out: IC50±SD MCF-7): 47.3 ± 3.8 µM
cytotoxic effect in HeLa (in words) (cervix carcinoma HeLa): comparable to BP-1-102 (1) and compound 6 at 50 µM, it was markedly decreased at lower concentrations
cytotoxicity by annexin V/PI staining and FACS (TC-1 cells): confirmed
cytotoxic effect in DU-145 (in words) ([4]; 0–50 µM, 24 h, resazurin assay): weaker response
IC50 ([4]; Homo sapiens, DU-145, read-out: IC50±SD DU-145): 65.3 ± 7.8 µM
cell death induction (annexin V/PI, FACS) (MDA-MB-231 cells): cell death induction was confirmed
cytotoxic activity in RPE-1 (in words) [5]: concentration-dependent cytotoxic activity
cytotoxic activity in U373 (in words) (human glioblastoma U373): concentration-dependent cytotoxic activity
IC50 (RPE-1): 39.7 ± 7.4 µM
cytotoxic effect in TRAMP-C2 (in words) [6]: cytotoxic activity comparable to BP-1-102 (1)
IC50 ([6]; Mus musculus, read-out: IC50±SD TRAMP-C2): 23.1 ± 10.5 µM
cytotoxic effect in U2-OS (in words) (osteosarcoma U2-OS): comparable to BP-1-102 (1) and compound 6 at 50 µM, it was markedly decreased at lower concentrations
inhibition of constitutive STAT3 Y705 phosphorylation [7]: inhibited constitutive STAT3 phosphorylation

Cc1ccc(S(=O)(=O)N(C)CC(=O)N(Cc2ccc(C3CCCCC3)cc2)c2ccc(C(=O)O)c(O)c2)cc1 [S3I-201.1066 (2), 4-(N-(4-Cyclohexylbenzyl)-2-(N-methyl-N-(p-toluenesulfonyl))acetamido)-2-hydroxybenzoic acid, reference compound]
cytotoxic effect in TC-1 (in words) [1]: did not demonstrate any cytotoxic effect
effect on viability of MDA-MB-231 [8]: reported to affect viability
cytotoxic effect in MDA-MB-231 (in words) ([2]; 24 h): did not show any observable cytotoxic effect
cytotoxic effect in MDA-MB-231 (in words) ([2]; 24 h, listed as 2): complete loss of cytotoxic activity
effect on viability of Panc-1 [9]: reported to affect viability
cytotoxic effect in TRAMP-C2 (in words) [6]: did not demonstrate any cytotoxic effect
